From the supplement of paper PMC10307832

Assays:
Experiment in all cases: relative viability (nuclei count vs DMSO), 5 days (fraction); higher = more cells survive
A-427 = tested on: A-427
How it was run: (§1)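 Relative viability is defined as nuclei in treated wells over nuclei in vehicle wells. Duplicate plates were run and medians reported. Lung cancer cell lines in 1536-well plates were dosed by pin tool one day after seeding, with one drug or with a fixed anchor-drug dose plus five library-drug doses (not always all listed) in √10 steps, and nuclei were counted after 5 days.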

COR-L 105 = tested on: COR-L 105
How it was run: as §1

EPLC-272H = tested on: EPLC-272H
How it was run: as §1

HCC-366 = tested on: HCC-366
How it was run: as §1

HCC-78 = tested on: HCC-78
How it was run: as §1

HOP-62 = tested on: HOP-62
How it was run: as §1

LC-2-ad = tested on: LC-2-ad
How it was run: as §1

LCLC-97TM1 = tested on: LCLC-97TM1
How it was run: as §1

LU99A = tested on: LU99A
How it was run: as §1

LXF-289 = tested on: LXF-289
How it was run: as §1

NCI-H1755 = tested on: NCI-H1755
How it was run: as §1

NCI-H1792 = tested on: NCI-H1792
How it was run: as §1

NCI-H1793 = tested on: NCI-H1793
How it was run: as §1

NCI-H1915 = tested on: NCI-H1915
How it was run: as §1

NCI-H1944 = tested on: NCI-H1944
How it was run: as §1

NCI-H1975 = tested on: NCI-H1975
How it was run: as §1

NCI-H2085 = tested on: NCI-H2085
How it was run: as §1

NCI-H2170 = tested on: NCI-H2170
How it was run: as §1

NCI-H358 = tested on: NCI-H358
How it was run: as §1

NCI-H460 = tested on: NCI-H460
How it was run: as §1

SK-LU-1 = tested on: SK-LU-1
How it was run: as §1

UMC-11 = tested on: UMC-11
How it was run: as §1

O=C(O)c1ccc(-c2c[nH]c3ncc(-c4ccccc4)cc23)cc1C1CCCC1 + CS(=O)(=O)CCNCc1ccc(-c2ccc3ncnc(Nc4ccc(OCc5cccc(F)c5)c(Cl)c4)c3c2)o1 [Lapatinib] (partner 2 µM)
relative viability (A-427; first compound 0.04 µM): 0.965 | relative viability (A-427; first compound 0.1265 µM): 1.06 | relative viability (A-427; first compound 0.4 µM): 0.986 | relative viability (A-427; first compound 1.265 µM): 0.935 | relative viability (COR-L 105; first compound 0.04 µM): 0.363 | relative viability (COR-L 105; first compound 0.1265 µM): 0.401 | relative viability (COR-L 105; first compound 0.4 µM): 0.347 | relative viability (COR-L 105; first compound 1.265 µM): 0.371 | relative viability (EPLC-272H; first compound 0.04 µM): 1.16 | relative viability (EPLC-272H; first compound 0.1265 µM): 1.01 | relative viability (EPLC-272H; first compound 0.4 µM): 0.898 | relative viability (EPLC-272H; first compound 1.265 µM): 0.877 | relative viability (HCC-366; first compound 0.04 µM): 1.01 | relative viability (HCC-366; first compound 0.1265 µM): 0.869 | relative viability (HCC-366; first compound 0.4 µM): 0.953 | relative viability (HCC-366; first compound 1.265 µM): 0.981 | relative viability (HCC-78; first compound 0.04 µM): 0.595 | relative viability (HCC-78; first compound 0.1265 µM): 1.25 | relative viability (HCC-78; first compound 0.4 µM): 0.979 | relative viability (HCC-78; first compound 1.265 µM): 0.64 | relative viability (HOP-62; first compound 0.04 µM): 1.23 | relative viability (HOP-62; first compound 0.1265 µM): 0.993 | relative viability (HOP-62; first compound 0.4 µM): 1.1 | relative viability (HOP-62; first compound 1.265 µM): 0.897 | relative viability (LC-2-ad; first compound 0.04 µM): 1 | relative viability (LC-2-ad; first compound 0.1265 µM): 1.02 | relative viability (LC-2-ad; first compound 0.4 µM): 0.904 | relative viability (LC-2-ad; first compound 1.265 µM): 0.803 | relative viability (LCLC-97TM1; first compound 0.04 µM): 1.34 | relative viability (LCLC-97TM1; first compound 0.1265 µM): 1.06 | relative viability (LCLC-97TM1; first compound 0.4 µM): 0.922 | relative viability (LCLC-97TM1; first compound 1.265 µM): 0.717 | relative viability (LU99A; first compound 0.04 µM): 0.972 | relative viability (LU99A; first compound 0.1265 µM): 1.2 | relative viability (LU99A; first compound 0.4 µM): 0.954 | relative viability (LU99A; first compound 1.265 µM): 0.792 | relative viability (LXF-289; first compound 0.04 µM): 0.96 | relative viability (LXF-289; first compound 0.1265 µM): 0.936 | relative viability (LXF-289; first compound 0.4 µM): 0.822 | relative viability (LXF-289; first compound 1.265 µM): 0.619 | relative viability (NCI-H1755; first compound 0.04 µM): 1.02 | relative viability (NCI-H1755; first compound 0.1265 µM): 1.11 | relative viability (NCI-H1755; first compound 0.4 µM): 1.02 | relative viability (NCI-H1755; first compound 1.265 µM): 0.967 | relative viability (NCI-H1792; first compound 0.04 µM): 0.77 | relative viability (NCI-H1792; first compound 0.1265 µM): 0.942 | relative viability (NCI-H1792; first compound 0.4 µM): 0.953 | relative viability (NCI-H1792; first compound 1.265 µM): 0.847 | relative viability (NCI-H1793; first compound 0.04 µM): 0.897 | relative viability (NCI-H1793; first compound 0.1265 µM): 1.34 | relative viability (NCI-H1793; first compound 0.4 µM): 0.969 | relative viability (NCI-H1793; first compound 1.265 µM): 0.71 | relative viability (NCI-H1915; first compound 0.04 µM): 1.05 | relative viability (NCI-H1915; first compound 0.1265 µM): 1.03 | relative viability (NCI-H1915; first compound 0.4 µM): 0.972 | relative viability (NCI-H1915; first compound 1.265 µM): 0.743 | relative viability (NCI-H1944; first compound 0.04 µM): 0.695 | relative viability (NCI-H1944; first compound 0.1265 µM): 1 | relative viability (NCI-H1944; first compound 0.4 µM): 0.623 | relative viability (NCI-H1944; first compound 1.265 µM): 0.736 | relative viability (NCI-H1975; first compound 0.04 µM): 0.873 | relative viability (NCI-H1975; first compound 0.1265 µM): 1.02 | relative viability (NCI-H1975; first compound 0.4 µM): 1 | relative viability (NCI-H1975; first compound 1.265 µM): 0.49 | relative viability (NCI-H2085; first compound 0.04 µM): 0.762 | relative viability (NCI-H2085; first compound 0.1265 µM): 0.947 | relative viability (NCI-H2085; first compound 0.4 µM): 0.799 | relative viability (NCI-H2085; first compound 1.265 µM): 0.508 | relative viability (NCI-H2170; first compound 0.04 µM): 0.26 | relative viability (NCI-H2170; first compound 0.1265 µM): 0.324 | relative viability (NCI-H2170; first compound 0.4 µM): 0.262 | relative viability (NCI-H2170; first compound 1.265 µM): 0.28 | relative viability (NCI-H358; first compound 0.04 µM): 0.438 | relative viability (NCI-H358; first compound 0.1265 µM): 0.447 | relative viability (NCI-H358; first compound 0.4 µM): 0.448 | relative viability (NCI-H358; first compound 1.265 µM): 0.323 | relative viability (NCI-H460; first compound 0.04 µM): 0.897 | relative viability (NCI-H460; first compound 0.1265 µM): 1.03 | relative viability (NCI-H460; first compound 0.4 µM): 0.801 | relative viability (NCI-H460; first compound 1.265 µM): 0.782 | relative viability (SK-LU-1; first compound 0.04 µM): 0.874 | relative viability (SK-LU-1; first compound 0.1265 µM): 0.831 | relative viability (SK-LU-1; first compound 0.4 µM): 0.771 | relative viability (SK-LU-1; first compound 1.265 µM): 0.488 | relative viability (UMC-11; first compound 0.04 µM): 0.994 | relative viability (UMC-11; first compound 0.1265 µM): 1.09 | relative viability (UMC-11; first compound 0.4 µM): 1.06 | relative viability (UMC-11; first compound 1.265 µM): 1.01
